# Measured values: the supplement of paper PMC11451515
# Test system: P12-Ichikawa
# Assay: cell viability relative to DMSO control; higher = less cytotoxic
# Details: 48 h
# Outline: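 Viability, reported as a per-plate percentage of DMSO wells with cell-free wells as background, came from CellTiter-Glo One luminescence. Reading took place after 48 h at 37°C. Before that, NOMO1 or SEM (500 cells/well) or P12-Ichikawa (1000 cells/well) leukemia cells, adapted for at least four passages in each medium, were seeded in 1536-well plates (5 μl) and pin-dosed with library compounds in DMSO, 47 μM to 0.79 nM over 11 threefold points.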
# [1] = HPLM + 10% dialyzed FBS, 0.000781 µM
# [2] = HPLM + 10% dialyzed FBS, 0.00234 µM
# [3] = HPLM + 10% dialyzed FBS, 0.00702 µM
# [4] = HPLM + 10% dialyzed FBS, 0.0211 µM
# [5] = HPLM + 10% dialyzed FBS, 0.0632 µM
# [6] = HPLM + 10% dialyzed FBS, 0.19 µM
# [7] = HPLM + 10% dialyzed FBS, 0.569 µM
# [8] = HPLM + 10% dialyzed FBS, 1.71 µM
# [9] = HPLM + 10% dialyzed FBS, 5.12 µM
# [10] = HPLM + 10% dialyzed FBS, 15.4 µM
# [11] = HPLM + 10% dialyzed FBS, 46.1 µM
# [12] = RPMI 5 mM glucose + 10% FBS, 0.000781 µM
# [13] = RPMI 5 mM glucose + 10% FBS, 0.00234 µM
# [14] = RPMI 5 mM glucose + 10% FBS, 0.00702 µM
# [15] = RPMI 5 mM glucose + 10% FBS, 0.0211 µM
# [16] = RPMI 5 mM glucose + 10% FBS, 0.0632 µM
# [17] = RPMI 5 mM glucose + 10% FBS, 0.19 µM
# [18] = RPMI 5 mM glucose + 10% FBS, 0.569 µM
# [19] = RPMI 5 mM glucose + 10% FBS, 1.71 µM
# [20] = RPMI 5 mM glucose + 10% FBS, 5.12 µM
# [21] = RPMI 5 mM glucose + 10% FBS, 15.4 µM
# [22] = RPMI 5 mM glucose + 10% FBS, 46.1 µM
# [23] = RPMI 5 mM glucose + 10% dialyzed FBS, 0.000781 µM
# [24] = RPMI 5 mM glucose + 10% dialyzed FBS, 0.00234 µM
# [25] = RPMI 5 mM glucose + 10% dialyzed FBS, 0.00702 µM
# [26] = RPMI 5 mM glucose + 10% dialyzed FBS, 0.0211 µM
# [27] = RPMI 5 mM glucose + 10% dialyzed FBS, 0.0632 µM
# [28] = RPMI 5 mM glucose + 10% dialyzed FBS, 0.19 µM
# [29] = RPMI 5 mM glucose + 10% dialyzed FBS, 0.569 µM
# [30] = RPMI 5 mM glucose + 10% dialyzed FBS, 1.71 µM
# [31] = RPMI 5 mM glucose + 10% dialyzed FBS, 5.12 µM
# [32] = RPMI 5 mM glucose + 10% dialyzed FBS, 15.4 µM
# [33] = RPMI 5 mM glucose + 10% dialyzed FBS, 46.1 µM
Structure (SMILES),cell viability [1] [%],cell viability [2] [%],cell viability [3] [%],cell viability [4] [%],cell viability [5] [%],cell viability [6] [%],cell viability [7] [%],cell viability [8] [%],cell viability [9] [%],cell viability [10] [%],cell viability [11] [%],cell viability [12] [%],cell viability [13] [%],cell viability [14] [%],cell viability [15] [%],cell viability [16] [%],cell viability [17] [%],cell viability [18] [%],cell viability [19] [%],cell viability [20] [%],cell viability [21] [%],cell viability [22] [%],cell viability [23] [%],cell viability [24] [%],cell viability [25] [%],cell viability [26] [%],cell viability [27] [%],cell viability [28] [%],cell viability [29] [%],cell viability [30] [%],cell viability [31] [%],cell viability [32] [%],cell viability [33] [%]
CCC(=O)N1CCN(CC1)C2=C(C=C(C=C2)N3C(=O)\C=C/C4=C3C5=CC(=CC=C5N=C4)C6=CN=C7C=CC=CC7=C6)C(F)(F)F,89,102,99.2,97.1,82.9,85.3,81.8,77.3,73.8,70.9,77,84.7,90.8,84,75.5,68,65.3,62.9,61.3,59.6,56.5,49.8,86.4,98.3,97.6,80.5,77.2,71.2,68.4,57.7,60.8,48.3,54.4
Clc1ccc(C(c2ccc(Cl)cc2)[n+]2ccn(CC(OCc3ccc(Cl)cc3Cl)c3ccc(Cl)cc3Cl)c2)cc1 (stereo not drawn),115,112,109,104,113,117,110,98.1,102,70.6,47.1,129,113,115,110,115,115,113,100,105,70.2,21,–,–,–,–,–,–,–,–,–,–,–
CCC(=O)O[C@@]1(CC[C@H]2[C@@H]3CCC/4=C/C(=O)CC[C@]4(C)[C@H]3CC[C@]12C)C(=O)CO,99.2,107,104,115,110,116,125,107,98.9,83.7,83.1,91.6,122,109,113,112,118,109,109,106,78.9,69.1,102,103,108,109,98.6,117,116,106,110,79.9,63
C/C=C(\C)C(=O)N[C@@H](c1ccccc1)[C@@H](O)C(=O)O[C@H]1C[C@@]2(O)[C@@H](OC(=O)c3ccccc3)[C@@H]3[C@]4(OC(C)=O)CO[C@@H]4C[C@H](O)[C@@]3(C)C(=O)[C@H](OC(C)=O)C(=C1C)C2(C)C,45.3,23.3,25.7,15.9,22.2,19,21.4,20.3,19,19,14.2,46.4,20.9,25.7,13.8,15.1,17.2,16.8,16.6,13,13,10.6,49.5,27.8,32.8,23,23,23.4,30.4,28.5,24.6,24.8,21.1
CC(C)[C@]12O[C@H]1[C@@H]3O[C@@]34[C@@]5(C)CC\C6=C(COC6=O)/[C@@H]5C[C@@H]7O[C@]47[C@@H]2O,97.5,9.15,6.65,7.98,9.04,8.65,9.22,8.95,8.4,6.67,4.18,102,16.6,8.24,5.66,7.99,8.04,7,6.95,5.74,4.33,2.61,101,10.6,8.79,7.77,9.01,8.98,9.99,9.74,9.21,6.99,5.18
Clc1ccc(C(c2ccccc2Cl)C(Cl)Cl)cc1 (stereo not drawn),113,119,116,112,118,119,107,110,103,95.4,91.6,122,118,116,109,119,107,104,116,106,103,94.4,122,120,109,112,116,107,106,106,103,99.6,97.2
COc1cc(N2CCC(N3CCN(C)CC3)CC2)ccc1Nc1ncc(Cl)c(Nc2ccccc2[S+](=O)([O-])C(C)C)n1,106,101,129,140,142,136,144,104,23.6,12.2,31.5,83.4,87.1,138,149,159,151,147,104,33.7,37.4,40.3,99.3,88.2,146,161,177,171,161,150,53.3,58,65.5
CC1(C)CCC(C)(C)c2cc(NC(=O)c3ccc(C(=O)O)cc3)ccc21,73.7,116,101,102,107,106,105,104,106,101,96.4,102,103,93.9,96.2,103,97.8,104,109,101,98.9,88.5,96.2,104,98.4,108,110,105,116,108,107,102,79.6
CC(C)C[C@H](CC(=O)O)C(=O)N[C@@H](Cc1c[nH]c2ccccc12)C(=O)N[C@@H](C)c1ccccc1,95.1,102,108,108,112,111,83.6,107,73.4,42.1,22.4,89,96,111,101,94.2,106,83.7,106,72.6,53.4,32.9,103,111,101,119,107,108,103,107,74.8,67.8,28.2
COc1c(N2C[C@@H]3CCCN[C@@H]3C2)c(F)cc2c(=O)c(C(=O)O)cn(C3CC3)c12.Cl.O,98.4,114,107,109,103,114,102,99.4,78.9,63,70.6,116,112,109,112,106,107,91.9,92.2,53.8,12.9,54,98.7,99.5,107,109,98.6,97,91,88.5,53.4,17.5,42.3
Nc1nccc(-c2ccc3noc(-c4ccc(Cl)cc4)c3c2)n1,124,124,131,129,120,124,128,120,122,115,118,–,–,–,–,–,–,–,–,–,–,–,116,119,122,123,117,115,110,123,115,105,110
CN(C)CCc1c[nH]c2ccc(Cn3cncn3)cc12,96.3,95,107,101,107,97,101,22.8,6.71,7.05,6.29,92,101,91.4,105,105,69.3,91.1,30.9,8.08,6.52,4.97,93.7,89.5,88.3,92.4,97.3,68.3,76.5,22.3,7.34,6.02,5.62
COCC(=O)NC/C=C/c1ccc2ncnc(Nc3ccc(Oc4ccc(C)nc4)c(C)c3)c2c1,99.6,99.3,101,107,101,92.3,103,98.6,95.7,93.1,64.5,91.7,112,106,105,105,100,91.5,101,81.6,77.2,43.1,102,109,115,113,105,99,97.9,101,88,79.7,51.5
COCCCC/C(=N\OCCN)c1ccc(C(F)(F)F)cc1,98.4,87.1,91.2,91,94.9,80.8,74.4,85,80.9,72.2,63.5,83.5,81.8,91.7,79.8,95.8,72,62.2,83.2,80.3,67,41.9,79.8,80.7,76.9,84.6,84.4,80.3,77.9,78.8,74.5,77.2,52.7
CCN(CC)CCCC(C)Nc1ccnc2cc(Cl)ccc12 (stereo not drawn),105,110,112,117,119,121,113,109,101,27.5,21,105,114,108,102,111,112,107,103,101,21.4,20.7,107,109,106,109,106,101,117,110,98.2,27.7,22
